Holding throughout (type): cell-based
Assay [1] concerns COLO205 (colon). Kind of assay: Inhibition of cell proliferation, CellTiter-Glo, COLO205. The settings on record: Homo sapiens, COLO 205, 72 h. Summed up:
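Exponentially growing COLO205 cells in medium with 10% FBS were plated below 2000 cells/well at 37 °C, 5% CO2. Untreated wells served as controls.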

The target of assay [2] is T1, human IGF-1R (NIH-3T3 cells over expressing human IGF-1R) (Homo sapiens, UniProt P08069).
T1 construct: expressed in transfected cells; host or cells: NIH-3T3 (mouse fibroblasts)
T1 sequence (P08069 31-1367): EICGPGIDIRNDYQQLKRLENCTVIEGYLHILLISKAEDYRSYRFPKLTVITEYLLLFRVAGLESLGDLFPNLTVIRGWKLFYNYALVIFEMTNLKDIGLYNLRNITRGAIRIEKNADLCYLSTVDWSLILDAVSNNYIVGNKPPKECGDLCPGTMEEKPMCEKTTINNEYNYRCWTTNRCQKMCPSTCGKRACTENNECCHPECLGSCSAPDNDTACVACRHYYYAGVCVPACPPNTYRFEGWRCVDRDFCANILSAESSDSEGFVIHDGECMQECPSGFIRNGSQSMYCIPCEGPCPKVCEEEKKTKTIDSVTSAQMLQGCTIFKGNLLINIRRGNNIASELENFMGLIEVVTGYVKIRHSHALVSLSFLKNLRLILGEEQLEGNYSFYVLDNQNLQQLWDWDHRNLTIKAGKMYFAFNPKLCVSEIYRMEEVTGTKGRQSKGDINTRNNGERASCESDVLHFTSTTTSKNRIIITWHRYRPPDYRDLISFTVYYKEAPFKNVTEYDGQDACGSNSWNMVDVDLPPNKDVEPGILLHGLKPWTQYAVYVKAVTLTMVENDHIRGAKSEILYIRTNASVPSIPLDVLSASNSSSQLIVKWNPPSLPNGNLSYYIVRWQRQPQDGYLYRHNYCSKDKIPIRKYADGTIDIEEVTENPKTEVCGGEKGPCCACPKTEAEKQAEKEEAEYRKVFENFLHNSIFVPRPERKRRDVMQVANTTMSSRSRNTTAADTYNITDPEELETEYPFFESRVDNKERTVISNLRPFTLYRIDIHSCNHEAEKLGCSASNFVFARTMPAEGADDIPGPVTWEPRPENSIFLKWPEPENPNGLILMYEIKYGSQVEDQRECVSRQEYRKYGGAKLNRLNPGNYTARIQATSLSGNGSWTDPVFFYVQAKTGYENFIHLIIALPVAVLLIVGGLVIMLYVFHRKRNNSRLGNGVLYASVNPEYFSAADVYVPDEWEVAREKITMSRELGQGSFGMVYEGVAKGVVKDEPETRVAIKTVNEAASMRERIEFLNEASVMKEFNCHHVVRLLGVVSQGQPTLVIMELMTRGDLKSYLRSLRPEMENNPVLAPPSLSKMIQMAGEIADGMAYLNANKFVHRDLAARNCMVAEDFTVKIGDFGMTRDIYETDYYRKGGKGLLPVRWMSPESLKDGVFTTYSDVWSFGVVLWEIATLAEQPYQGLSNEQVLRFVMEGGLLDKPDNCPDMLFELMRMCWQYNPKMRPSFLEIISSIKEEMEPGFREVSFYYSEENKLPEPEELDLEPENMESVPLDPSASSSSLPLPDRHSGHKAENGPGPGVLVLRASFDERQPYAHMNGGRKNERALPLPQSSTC
The assay can be described thus: IGF-1R cellular autophosphorylation (DELFIA). The note with it: IGF-1 stimulated. Summed up:
(§1)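 Autophosphorylation of IGF-1R or IR is measured in NIH-3T3 lines overexpressing each human receptor after 2 h compound pretreatment and a 15 min ligand challenge (IGF-1 30 ng/mL; insulin 3 ug/mL). Fluorescence is normalised to 100% stimulation.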

Assay [3] concerns the target T2, IR (NIH-3T3 cells over expressing human IGF-1R or IR) (Homo sapiens, UniProt P06213).
T2 construct: expressed in transfected cells; host or cells: NIH-3T3 (mouse fibroblasts)
The assay can be described thus: IR cellular autophosphorylation (DELFIA). The settings on record: NIH-3T3 cells over expressing IR, insulin stimulated. Summed up: as §1

Assay [4] concerns NCI-H929 (multiple myeloma). Kind of assay: Inhibition of cell proliferation, CellTiter-Glo, NCI-H929. The note with it: Homo sapiens, 72 h. Summed up: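 Cells were grown in medium with 10% FBS at 37° C, 5% CO2. Cell number was read as CellTiter-Glo luminescence (cellular ATP), with untreated wells as control.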
(Cellular ATP, detected with luciferase, serves as a proxy for viable cell number.)

Broadly, the IC50 is the midpoint of a concentration-inhibition curve. A low value points to greater potency.

T2 sequence (P06213 28-1382): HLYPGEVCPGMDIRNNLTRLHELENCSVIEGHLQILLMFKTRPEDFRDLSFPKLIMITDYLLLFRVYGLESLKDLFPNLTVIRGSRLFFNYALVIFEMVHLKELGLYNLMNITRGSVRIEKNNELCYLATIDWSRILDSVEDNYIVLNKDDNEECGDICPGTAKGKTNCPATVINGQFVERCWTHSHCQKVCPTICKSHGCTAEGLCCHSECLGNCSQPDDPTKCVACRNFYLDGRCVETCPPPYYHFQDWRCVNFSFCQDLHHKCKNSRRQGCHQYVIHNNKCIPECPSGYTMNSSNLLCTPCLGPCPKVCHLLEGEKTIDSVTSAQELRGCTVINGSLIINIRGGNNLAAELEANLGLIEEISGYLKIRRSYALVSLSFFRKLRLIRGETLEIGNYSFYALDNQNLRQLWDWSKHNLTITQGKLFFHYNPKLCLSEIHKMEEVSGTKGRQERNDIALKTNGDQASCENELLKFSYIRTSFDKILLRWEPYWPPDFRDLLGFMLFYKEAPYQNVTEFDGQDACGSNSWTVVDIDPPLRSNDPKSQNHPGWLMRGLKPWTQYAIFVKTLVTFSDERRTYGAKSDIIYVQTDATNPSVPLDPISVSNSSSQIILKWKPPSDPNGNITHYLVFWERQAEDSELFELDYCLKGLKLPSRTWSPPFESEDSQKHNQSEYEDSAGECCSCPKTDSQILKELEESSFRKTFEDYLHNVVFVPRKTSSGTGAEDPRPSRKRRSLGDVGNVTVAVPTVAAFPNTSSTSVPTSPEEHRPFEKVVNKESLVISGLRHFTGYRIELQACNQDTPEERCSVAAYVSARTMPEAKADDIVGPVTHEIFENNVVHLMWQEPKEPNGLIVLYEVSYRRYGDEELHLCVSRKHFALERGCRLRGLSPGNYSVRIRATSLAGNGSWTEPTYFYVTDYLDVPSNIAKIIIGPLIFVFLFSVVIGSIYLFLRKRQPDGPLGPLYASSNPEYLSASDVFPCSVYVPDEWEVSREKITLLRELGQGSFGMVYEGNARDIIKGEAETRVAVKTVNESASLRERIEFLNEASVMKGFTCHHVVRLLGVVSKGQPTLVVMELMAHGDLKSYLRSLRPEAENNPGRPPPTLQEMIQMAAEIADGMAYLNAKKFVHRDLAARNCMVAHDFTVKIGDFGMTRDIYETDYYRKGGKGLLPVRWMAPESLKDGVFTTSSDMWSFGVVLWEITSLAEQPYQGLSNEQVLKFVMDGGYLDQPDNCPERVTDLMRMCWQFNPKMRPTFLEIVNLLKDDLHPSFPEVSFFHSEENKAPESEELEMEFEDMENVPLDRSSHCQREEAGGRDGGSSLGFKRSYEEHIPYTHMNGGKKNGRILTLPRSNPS

As for `CCOc1ccc(-c2nc3ccccn3c2-c2ccnc(Nc3ccc(N4CCC(CCS(C)(=O)=O)CC4)cc3OC)n2)cc1C(=O)Nc1c(F)cccc1F` [Example 200, N-(2,6-difluorophenyl)-2-(ethyloxy)-5-(3-{2-[(2-(methyloxy)-4-{4-[2-(methylsulfonyl)ethyl]-1-piperidinyl}phenyl)amino]-4-pyrimidinyl}imidazo[1,2-a]pyridin-2-yl)benzamide], the IC50 in assay [1] is < 250 nM; in assay [2], < 100 nM; in assay [3] it was < 100 nM; in assay [4], < 250 nM.

Take `CCCN1CCC(c2ccc(Nc3nccc(-c4c(-c5ccc(OCC)c(C(=O)Nc6c(F)cccc6F)c5)nc5ccccn45)n3)c(OCC)c2)CC1` [Example 156, N-(2,6-difluorophenyl)-2-(ethyloxy)-5-[3-(2-{[2-(ethyloxy)-4-(1-propyl-4-piperidinyl)phenyl]amino}-4-pyrimidinyl)imidazo[1,2-a]pyridin-2-yl]benzamide]: the half-inhibitory concentration (IC50) is 250 to 1000 nM in assay [1], < 100 nM in assay [2], < 100 nM in assay [3] and < 250 nM in assay [4].

In the case of `CCOc1cc(N2CCC(N3CCN(CCS(C)(=O)=O)CC3)CC2)ccc1Nc1nccc(-c2c(-c3cccc(C(=O)Nc4c(F)cccc4F)c3)nc3ccccn23)n1` [Example 119, N-(2,6-difluorophenyl)-3-[3-(2-{[2-(ethyloxy)-4-(4-{4-[2-(methylsulfonyl)ethyl]-1-piperazin-yl]-1-piperidinyl)phenyl]amino}-4-pyrimidinyl)imidazo[1,2-a]pyridin-2-yl]benzamide], the IC50 in assay [1] was 250 to 1000 nM; in assay [2], < 100 nM; in assay [3], < 100 nM; in assay [4] it was < 250 nM.

With `COc1cc(N2CCN(S(C)(=O)=O)CC2)ccc1Nc1nccc(-c2c(-c3cccc(C(=O)Nc4c(F)cccc4F)c3)nc3ccccn23)n1` [Example 234, N-(2,6-difluorophenyl)-3-{3-[2-({2-(methyloxy)-4-[4-(methylsulfonyl)-1-piperazinyl]phenyl}amino)-4-pyrimidinyl}imidazo[1,2-a]pyridin-2-yl]benzamide], the IC50 in assay [1] is 250 to 1000 nM; in assay [2], < 100 nM; in assay [3], < 100 nM; in assay [4] it was < 250 nM.

`COc1cc(N2CCN(C(C)C)CC2)ccc1Nc1nccc(-c2c(-c3ccc(OC)c(C(=O)Nc4c(F)cccc4F)c3)nc3ccccn23)n1` [Example 176, N-(2,6-difluorophenyl)-5-[3-(2-{[4-[4-(1-methylethyl)-1-piperazinyl]-2-(methyloxy)phenyl]-amino}-4-pyrimidinyl)imidazo[1,2-a]pyridin-2-yl]-2-(methyloxy)benzamide]: the half-inhibitory concentration (IC50) in assay [1] was 250 to 1000 nM; in assay [2] it was < 100 nM; in assay [3], < 100 nM; in assay [4] it was < 250 nM.

With `COc1cc(N2CCC(N3CCN(S(C)(=O)=O)CC3)CC2)ccc1Nc1nccc(-c2c(-c3ccc(OC(C)C)c(C(=O)Nc4c(F)cccc4F)c3)nc3ccccn23)n1` [Example 227, N-(2,6-difluorophenyl)-2-[(1-methylethyl)oxy]-5-(3-{2-[(2-(methyloxy)-4-{4-[4-(methylsulfonyl)-1-piperazinyl]-1-piperidinyl}phenyl)amino]-4-pyrimidinyl}imidazo[1,2-a]pyridin-2-yl)benzamide], the IC50 in assay [1] is < 250 nM; in assay [2] it was < 100 nM; in assay [3], < 100 nM; in assay [4], < 250 nM.

For `CCOc1cc(N2CCC(N3CCN(CCF)CC3)CC2)ccc1Nc1nccc(-c2c(-c3cccc(C(=O)Nc4c(F)cccc4F)c3)nc3ccccn23)n1` [Example 116, N-(2,6-difluorophenyl)-3-(3-{2-[(2-(ethyloxy)-4-{4-[4-(2-fluoroethyl)-1-piperazinyl]-1-piperidinyl}phenyl)amino]-4-pyrimidinyl}imidazo[1,2-a]pyridin-2-yl)benzamide], the IC50 in assay [1] is 250 to 1000 nM; in assay [2], < 100 nM; in assay [3] it was < 100 nM; in assay [4], 250 to 1000 nM.

As for `COc1cc(N2CCC(N3CCCCC3)CC2)ccc1Nc1nccc(-c2c(-c3cccc(C(=O)Nc4c(F)cccc4F)c3)nc3cc(F)ccn23)n1` [Example 195, 3-[3-(2-{[4-(1,4′-bipiperidin-1′-yl)-2-(methyloxy)phenyl]amino}-4-pyrimidinyl)-7-fluoroimidazo[1,2-a]pyridin-2-yl]-N-(2,6-difluorophenyl)benzamide], the IC50 in assay [1] was 250 to 1000 nM; in assay [2] it was < 100 nM; in assay [3], < 100 nM; in assay [4], 250 to 1000 nM.

`CCOc1cc(N2CCC(CCS(C)(=O)=O)CC2)c(C)cc1Nc1nccc(-c2c(-c3cccc(C(=O)Nc4c(F)cccc4F)c3)nc3ccccn23)n1` [Example 221, N-(2,6-difluorophenyl)-3-(3-{2-[(2-(ethyloxy)-5-methyl-4-{4-[2-(methylsulfonyl)ethyl]-1-piperidinyl}phenyl)amino]-4-pyrimidinyl}imidazo[1,2-a]pyridin-2-yl)benzamide]: the half-maximal inhibitory concentration (IC50) in assay [1] is 250 to 1000 nM; in assay [2], < 100 nM; in assay [3] it was < 100 nM; in assay [4], < 250 nM.

As for `CCOc1cc(N2CCN(CCS(C)(=O)=O)CC2)c(C)cc1Nc1nccc(-c2c(-c3cccc(C(=O)Nc4c(F)cccc4F)c3)nc3ccccn23)n1` [Example 246, N-(2,6-difluorophenyl)-3-(3-{2-[(2-(ethyloxy)-5-methyl-4-{4-[2-(methylsulfonyl)ethyl]-1-piperazinyl}phenyl)amino]-4-pyrimidinyl}imidazo[1,2-a]pyridin-2-yl)benzamide], the half-inhibitory concentration (IC50) is < 250 nM in assay [1], < 100 nM in assay [2], < 100 nM in assay [3] and < 250 nM in assay [4].

In the case of `COc1cc(N2CCC(N3CCN(C(C)=O)CC3)CC2)ccc1Nc1nccc(-c2c(-c3cccc(C(=O)Nc4c(F)cccc4F)c3)nc3ccccn23)n1` [Example 70], the IC50 in assay [1] was 250 to 1000 nM; in assay [2], < 100 nM; in assay [3] it was < 100 nM; in assay [4], < 250 nM.

Take `CCOc1cc(N2CCC(N3CCN(S(C)(=O)=O)CC3)CC2)ccc1Nc1nccc(-c2c(-c3ccc(OC)c(C(=O)Nc4c(F)cccc4F)c3)nc3ccccn23)n1` [Example 223, N-(2,6-difluorophenyl)-5-(3-{2-[(2-(ethyloxy)-4-{4-[4-(methylsulfonyl)-1-piperazinyl]-1-piperidinyl}phenyl)amino]-4-pyrimidinyl}imidazo[1,2-a]pyridin-2-yl)-2-(methyloxy)benzamide]: the IC50 in assay [1] was < 250 nM; in assay [2] it was < 100 nM; in assay [3], < 100 nM; in assay [4], < 250 nM.

As to `COc1ccc(-c2nc3ccccn3c2-c2ccnc(Nc3ccc(N4CCC(N5CCCCC5)CC4)c(C)c3OC)n2)cc1C(=O)Nc1c(F)cccc1F` [Example 55, 5-[3-(2-{[4-(1,4′-bipiperidin-1′-yl)-3-methyl-2-(methyloxy)phenyl]amino}-4-pyrimidinyl)imidazo[1,2-a]pyridin-2-yl]-N-(2,6-difluorophenyl)-2-(methyloxy)benzamide], the IC50 was > 1000 nM in assay [1], 100 to 500 nM in assay [2], > 500 nM in assay [3] and > 1000 nM in assay [4].

Take `COc1cc(N2CCC(N3CCN4CCOC[C@@H]4C3)CC2)ccc1Nc1nccc(-c2c(-c3cccc(C(=O)Nc4c(F)cccc4F)c3)nc3ccccn23)n1` [Example 87, N-(2,6-difluorophenyl)-3-[3-(2-{[4-{4-[(9aS)-hexahydropyrazino[2,1-c][1,4]oxazin-8(1H)-yl]-1-piperidinyl}-2-(methyloxy)phenyl]amino}-4-pyrimidinyl)imidazo[1,2-a]pyridin-2-yl]benzamide]: the half-inhibitory concentration (IC50) in assay [1] was 250 to 1000 nM; in assay [2], < 100 nM; in assay [3], < 100 nM; in assay [4] it was < 250 nM.

For `CCCN1CCC(c2cc(OC)c(Nc3nccc(-c4c(-c5ccc(OCC)c(C(=O)Nc6c(F)cccc6F)c5)nc5ccccn45)n3)cc2C)CC1` [Example 158, N-(2,6-difluorophenyl)-2-(ethyloxy)-5-[3-(2-{[5-methyl-2-(methyloxy)-4-(1-propyl-4-piperidinyl)phenyl]amino}-4-pyrimidinyl)imidazo[1,2-a]pyridin-2-yl]benzamide], the half-inhibitory concentration (IC50) is < 250 nM in assay [1], < 100 nM in assay [2], < 100 nM in assay [3] and < 250 nM in assay [4].

Regarding `CCOc1ccc(-c2nc3ccccn3c2-c2ccnc(Nc3cc(C)c(N4CCN(CCOC)CC4)cc3OC)n2)cc1C(=O)Nc1c(F)cccc1F` [Example 241, N-(2,6-difluorophenyl)-2-(ethyloxy)-5-(3-{2-[(5-methyl-2-(methyloxy)-4-{4-[2-(methyloxy)ethyl]-1-piperazinyl}phenyl)amino]-4-pyrimidinyl}imidazo[1,2-a]pyridin-2-yl)benzamide], the IC50 was 250 to 1000 nM in assay [1], < 100 nM in assay [2], < 100 nM in assay [3] and < 250 nM in assay [4].

As for `COc1cc(N2CCC(N3CCN(CCF)C(=O)C3)CC2)ccc1Nc1nccc(-c2c(-c3cccc(C(=O)Nc4c(F)cccc4F)c3)nc3ccccn23)n1` [Example 121, N-(2,6-difluorophenyl)-3-[3-(2-{[4-{4-[4-(2-fluoroethyl)-3-oxo-1-piperazinyl]-1-piperidinyl}-2-(methyloxy)phenyl]amino]-4-pyrimidinyl)imidazo[1,2-a]pyridin-2-yl]benzamide], the IC50 in assay [1] is 250 to 1000 nM; in assay [2] it was < 100 nM; in assay [3], < 100 nM; in assay [4], < 250 nM.

The values above are taken from US20100216779A1 (GLAXOSMITHKLINE LLC, priority 2007, published 2010).
